Laboratory results taken from PMC3640384, “HPN, a Synthetic Analogue of Bromophenol from Red Alga Rhodomela confervoides: Synthesis and Anti-Diabetic Effects in C57BL/KsJ-db/db Mice” (Marine Drugs, 2013).

Molecular target: T1, protein tyrosine phosphatase 1B (PTP1B) (Homo sapiens, UniProt P18031)
T1 construct: gene PTPN1; Recombinant human GST-PTP1B (hGST-PTP1B)
T1 sequence (P18031 1-435): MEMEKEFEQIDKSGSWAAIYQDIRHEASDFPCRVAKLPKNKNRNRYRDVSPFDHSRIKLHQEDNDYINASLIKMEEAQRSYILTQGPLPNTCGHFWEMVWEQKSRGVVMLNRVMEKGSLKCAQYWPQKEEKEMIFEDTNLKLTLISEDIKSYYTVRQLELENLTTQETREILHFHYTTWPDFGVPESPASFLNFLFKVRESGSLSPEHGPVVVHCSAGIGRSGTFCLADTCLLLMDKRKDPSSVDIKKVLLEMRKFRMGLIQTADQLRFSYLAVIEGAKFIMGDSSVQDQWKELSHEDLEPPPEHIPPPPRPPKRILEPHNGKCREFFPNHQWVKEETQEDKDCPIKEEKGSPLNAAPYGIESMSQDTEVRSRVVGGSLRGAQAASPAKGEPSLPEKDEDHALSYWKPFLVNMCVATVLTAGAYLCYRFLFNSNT
Assay: pNPP hydrolysis assay at […] nm with recombinant GST-PTP1B
Assay type: biochemical

IC50: 0.63 µM
SMILES: CC(C)OCc1cc(O)c(O)c(Br)c1Cc1cc(O)c(O)c(Br)c1Br [HPN, 3,4-dibromo-5-(2-bromo-3,4-dihydroxy-6-(isopropoxymethyl)benzyl)benzene-1,2-diol]
